In PubChem BioAssay (NCI):
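Growth conditions: 96-well plates. Treatment: test compound, 48 hours, 5 concentrations. Analysis: linear interpolation between bracketing concentrations; unreached endpoints set to highest concentration. The concentration for 50% growth inhibition is given as GI50. TGI marks complete inhibition of growth.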

Key:
Assay in all cases: growth of human tumour cells (NCI), 48 h
UACC-62 melanoma = system: UACC-62 melanoma
UACC-257 melanoma = system: UACC-257 melanoma
SNB-75 CNS = system: SNB-75 CNS
SF-295 CNS = system: SF-295 CNS
M14 melanoma = system: M14 melanoma
MALME-3M melanoma = system: MALME-3M melanoma
HOP-62 NSCLC = system: HOP-62 NSCLC
RPMI-8226 leukemia = system: RPMI-8226 leukemia
ACHN renal = system: ACHN renal
EKVX NSCLC = system: EKVX NSCLC

| SMILES | GI50 (UACC-62 melanoma) | TGI (UACC-62 melanoma) | GI50 (UACC-257 melanoma) | TGI (UACC-257 melanoma) | GI50 (SNB-75 CNS) | TGI (SNB-75 CNS) | GI50 (SF-295 CNS) | TGI (SF-295 CNS) | GI50 (M14 melanoma) | TGI (M14 melanoma) | GI50 (MALME-3M melanoma) | TGI (MALME-3M melanoma) | GI50 (HOP-62 NSCLC) | TGI (HOP-62 NSCLC) | GI50 (RPMI-8226 leukemia) | TGI (RPMI-8226 leukemia) | GI50 (ACHN renal) | TGI (ACHN renal) | TGI (EKVX NSCLC) | GI50 (EKVX NSCLC) |
| --- | --- | --- | --- | --- | --- | --- | --- | --- | --- | --- | --- | --- | --- | --- | --- | --- | --- | --- | --- | --- |
| CCCCCCn1c(=N)n(CC(O)COc2cccc(C)c2)c2ccccc21 (stereo unspecified) | 1.92 µM | 4.97 µM | 2 µM | 4.35 µM | 2.54 µM | 12.2 µM | 1.78 µM | 3.78 µM | 1.83 µM | 3.42 µM | 1.92 µM | 3.66 µM | 2.14 µM | 3.88 µM | 1.98 µM | 4.56 µM | 2.02 µM | 4.25 µM |  |  |
| CC(C)(O)C1CC(=O)C(C)(C2C(O)CC3(C)C4CC=C5C(CCC(O)C5(C)C)C4(C)C(=O)CC23C)O1 (stereo unspecified) |  | > 100 µM |  | > 100 µM |  | > 100 µM |  | > 100 µM |  | > 100 µM |  |  |  | > 100 µM |  | > 100 µM |  | > 100 µM | > 100 µM |  |
| O=C1c2cccc3cc4ccccc4c(c23)C(=O)N1CCCNCCNCCCN1C(=O)c2cccc3cc4ccccc4c(c23)C1=O |  |  |  | 2.25 µM |  | 1.48 µM |  | 1.64 µM |  | 2.21 µM |  | 1.8 µM |  | 1.72 µM |  | 0.387 µM |  | 1.6 µM | 2.37 µM |  |
| Cc1cccc(NC(=O)c2sc3nc4c(cc3c2N)CCC4)c1C | 0.267 µM | 21 µM | 2.67 µM | 46.6 µM | 0.189 µM | 0.815 µM | 0.245 µM | 11.1 µM | 0.236 µM | 2.4 µM |  |  | 0.428 µM | 17.4 µM | 0.346 µM | 16.2 µM | 0.951 µM | 36.7 µM |  |  |
| C/C=C\C(C)=C/C(C)C(=O)CC(O)CC1CC(=O)NC(=O)C1 (stereo unspecified) |  | > 64.1 µM |  | > 100 µM |  | 68.2 µM |  | > 100 µM |  | > 100 µM |  |  |  | > 100 µM |  | > 76.6 µM |  | > 100 µM | > 100 µM |  |
| CCCC1C2=C(C(=O)OC2=O)C2C(CC)CC3=C(C(=O)OC3=O)C12 (stereo unspecified) |  | > 100 µM |  | > 100 µM |  | > 100 µM |  | > 100 µM |  | > 100 µM |  |  |  | > 100 µM |  | > 100 µM |  | > 100 µM | > 100 µM |  |
| O=C(Cc1nc2ccccc2s1)C(=O)Nc1ccccc1C(F)(F)F |  | > 100 µM |  | > 100 µM |  | > 100 µM |  | > 100 µM |  | > 100 µM |  | > 100 µM |  | > 100 µM |  |  |  | > 100 µM | > 100 µM |  |
| Cc1ccc(S(=O)(=O)NC(CCCCN)C(=O)CCl)cc1 (stereo unspecified) | 58.3 µM | > 100 µM | > 100 µM | > 100 µM | > 100 µM | > 100 µM | 27.2 µM | 77 µM | > 100 µM | > 100 µM | 68.7 µM | > 100 µM | 63.5 µM | > 100 µM |  |  | 92.7 µM | > 100 µM | 93.4 µM | 27.3 µM |
| COc1ccc(C2CC(c3cccc(Nc4ccnc5cc(Cl)ccc45)c3)=NN2c2ccc(Cl)cc2)cc1 (stereo unspecified) | 0.601 µM | 13.3 µM | 6.4 µM | 51.4 µM | 12.5 µM | 97.9 µM | 5.8 µM | 23.3 µM | 0.752 µM | 11 µM | 22.7 µM | 59.5 µM | 2.44 µM | 25.6 µM | 4.7 µM | 31.9 µM | 4.63 µM | 90.6 µM |  |  |
| O=C1/C(=C/c2ccc([N+](=O)[O-])s2)Oc2ccc(Cl)cc21 | 0.271 µM | 0.771 µM | 0.63 µM | 2.25 µM | 0.486 µM | 1.74 µM | 0.999 µM | 2.98 µM | 0.512 µM | 1.52 µM | 0.526 µM | 1.38 µM | 0.775 µM | 3 µM | 0.298 µM | 0.97 µM | 0.234 µM | 0.595 µM |  |  |
| COc1ccc2nccc(C3OC(=O)N4CCC(=O)CC34)c2c1 (stereo unspecified) |  | > 100 µM |  | > 100 µM |  |  |  | > 100 µM |  | > 100 µM |  |  |  | > 100 µM |  | > 100 µM |  | > 100 µM | > 100 µM |  |
| Cn1cc(C2=C(c3cn(CCCSC(=N)N)c4ccccc34)C(=O)NC2=O)c2ccccc21 | 2.54 µM | 5.7 µM | 3.22 µM | 6.73 µM | 0.674 µM | 4.33 µM | 5.19 µM | 14.1 µM | 3.56 µM | 7.77 µM | 3.84 µM | 8.34 µM | 2.36 µM | 7.39 µM | 4.61 µM | 10.3 µM | 4.42 µM | 9.31 µM |  |  |
| Cn1c([N+](=O)[O-])cnc1/C=C1\Oc2ccc(Cl)cc2C1=O | 1.24 µM | 3.27 µM | 1.95 µM | 5.2 µM | 0.63 µM | 2.27 µM | 1.72 µM | 5.65 µM | 0.636 µM | 4.26 µM | 1.42 µM | 4.78 µM | 1.6 µM | 4.78 µM | 0.985 µM | 5.58 µM | 0.258 µM | 0.921 µM |  |  |
| S=C(N/N=C/c1ccccc1)NC1CC(c2ccccc2)Oc2ccccc21 (stereo unspecified) |  | > 100 µM |  |  |  | 31.3 µM |  | 87.7 µM |  | > 100 µM |  | > 100 µM |  |  |  |  |  |  | > 100 µM |  |
| COC(=O)c1cc2c([nH]c3ccccc32)c(-c2nc3cc(N(S(=O)(=O)c4ccc(C)cc4)S(=O)(=O)c4ccc(C)cc4)c(OC)cc3cc2CO)n1 | > 100 µM | > 100 µM | > 100 µM | > 100 µM | 33.5 µM | 98.7 µM | > 100 µM | > 100 µM | > 100 µM | > 100 µM | > 100 µM | > 100 µM |  |  |  |  | > 100 µM | > 100 µM | > 100 µM | > 100 µM |
| COC(=O)c1c(OC(=O)c2ccccc2)noc1CC(=O)OC1C=CCCC1 (stereo unspecified) |  | > 100 µM |  | > 100 µM |  | > 100 µM |  |  |  | > 100 µM |  | > 100 µM |  | > 100 µM |  | > 100 µM |  | > 100 µM |  |  |
| COc1cc(C2C(C(=O)Nc3ccc(Cl)c(Cl)c3)=C(C)NC(C)=C2C(=O)Nc2ccc(Cl)c(Cl)c2)ccc1O |  |  |  | 28.7 µM |  | 34.5 µM |  | 34.5 µM |  | 26.9 µM |  | 27.3 µM |  | 23.1 µM |  | 30.1 µM |  | 32.9 µM | 28.1 µM |  |
